One experiment concerns E. coli. The experiment can be described thus: Biofilm growth assay (spreading biofilm on semi-solid agar). The following applies: for IC85: Escherichia coli, read-out: E. coli. Type of experiment: cell-based. An excerpt:
(§1) "Biofilm Growth Assay" refers to an assay performed on semi-solid agar surface where the bacteria collectively move out from an inoculation point. To those skilled in the art, the act of bacteria collectively moving out from an inoculation point on a semi-solid surface may be referred to as swarming or a spreading biofilm. (Anderson, et al Microbiology, 2003, 149, 37-46; Daniels, et al. FEMS Microbiology Reviews, 2004, 28, 261-289). The procedure to perform this assay is described in detail in the Examples. This type of surface motility by bacteria has been reported in the literature by those skilled in the art.
(§2) The biofilm growth assay was carried out to measure swarming or biofilm spreading on semi-solid agar media in round plates (for example, 100 × 15 mm), also referred to as Petri dishes. For E. coli, the plates contained LB medium with 0.6% agar and 0.5% glucose. P. aeruginosa plates were made with M8 agar supplemented with 0.2% glucose, 100 µM CaCl2, 1 mM MgSO4, and 0.5% Casamino acids. The agar plates of this assay consisted of 0.4% to 0.7% agar (Bacto or Noble agar), although other media may also be used as described in the literature and known to those skilled in the art. Test compounds at the desired concentration were added to the cooled, autoclaved media. Portions of the media were then poured into the plates (20 mL/plate), and the plates allowed to dry at room temperature for approximately 3 to 4 hours. Alternatively, however, plates may be dried in a laminar flow hood for approximately fifteen to twenty minutes. Overnight cultures were grown in a 37°C shaker in LB (E. coli) or TSB (P. aeruginosa). Plates were inoculated by placing 5 µL of the appropriate overnight culture in the centers of the plates. The plates then were incubated overnight at 37°C. The area of the zone of spreading bacteria was then measured and replicates are averaged. Percent inhibition was calculated as 100 × (area without compound - area with compound)/(area without compound). An active compound was considered that which reduces the area of the spreading biofilm compared to negative controls by greater than or equal to 85%. The values shown in Table 1 are the concentrations of compounds (µg/ml) tested in the biofilm growth assay that reduce the area of the spreading biofilm compared to negative controls by greater than or equal to 85% unless noted differently in Table 1. A > ("greater than" symbol) as used in Table 1 is well understood to those skilled in the art as an indication that the listed concentration was not effective at this concentration.
(§3) All of the compounds shown in Tables 2, 3, 4, and 5, below, were prepared semi-synthetically from oleanolic acid, except for Compounds 2 and 3. Compound 2 was prepared from ursolic acid. Compound 3 was prepared from hederagenin, but could also be prepared from an oleanolic acid analog with a hydroxyl at C23 or C24. These compounds were tested in the spreading biofilm assay according to the methods detailed in Example I, above. The values shown in Tables 2, 3, 4, and 5 are the concentrations of compounds tested in the biofilm growth assay that reduce the area of the spreading biofilm compared to negative controls by greater than or equal to 85%. Table 2. Compound 1 and its Analogs and their inhibitory concentrations in the biofilm growth assay as detailed in Example I, above

The next experiment has as its system P. aeruginosa. Described as above. It is filed as cell-based. As to conditions: for IC85: Pseudomonas aeruginosa.
Source text: as §1, §2, §3

Setting [1] is: Table 2, concentration that reduces the area of the spreading biofilm by >= 85%.
Where [2] appears, read: Table 2, concentration that reduces the area of the spreading biofilm by >= 85%, read-out: P. aeruginosa.
Where [3] appears, read: Table 1, concentration that reduces the area of the spreading biofilm vs negative controls by >= 85%, > means not effective at this concentration.
Setting [4] is: Table 1, concentration that reduces the area of the spreading biofilm vs negative controls by >= 85%, > means not effective at this concentration, read-out: P. aeruginosa.

Converted amounts (≈) assume the structure as drawn. Read-outs that look alike come from different tables or passages of the source.

On to `CN(C)c1ccc(C2=C3C4CC(C)(C)CC[C@]4(C(=O)O)CC[C@@]3(C)[C@]3(C)CCC4C(C)(C)c5n[nH]c(N)c5C[C@]4(C)C3C2)cc1` (stereo in doubt) [Compound 10, (4aS,6aS,6bR,13aR)-12-Amino-15-(4-(dimethylamino)phenyl)-2,2,6a,6b,9,9,13a-heptamethyl-2,3,4,4a,5,6,6a,6b,7,8,8a,9,11,13,13a,13b,14,15b-octadecahydro-1H-chryseno[1,2-f]indazole-4a-carboxylic acid], for which the IC85 stood at 1 µg/mL (≈ 1.63 µM) in the experiment with E. coli (setting [1]) and 0.5 µg/mL (≈ 0.816 µM) in the experiment with P. aeruginosa (setting [2]).
As for `C=C(C)[C@@H]1CC[C@]2(CO)CC[C@]3(C)[C@H](CC[C@@H]4[C@@]5(C)CC[C@H](O)C(C)(C)[C@@H]5CC[C@]43C)[C@@H]12` [Betulin, reference compound], the figures for the IC85 in the experiment on E. coli (setting [3]) and with P. aeruginosa (setting [4]) were over 16 µg/mL and 16 µg/mL (≈ 36.1 µM), respectively.
As for `C=C(C)[C@@H]1CC[C@]2(C(=O)O)CC[C@]3(C)[C@H](CC[C@@H]4[C@@]5(C)CC[C@H](O)C(C)(C)[C@@H]5CC[C@]43C)[C@@H]12` [Betulinic acid, reference compound], the IC85 with E. coli (setting [3]) and in the experiment on P. aeruginosa (setting [4]) was over 16 µg/mL throughout.
Turning to `CC1(C)CC[C@]2(C(=O)O)CC[C@]3(C)C(=CCC4[C@@]5(C)Cc6cc[nH]c6C(C)(C)C5CC[C@]43C)C2C1` (stereo partly drawn) [C], the IC85 in the experiment on E. coli (setting [3]) and with P. aeruginosa (setting [4]) was 0.5 µg/mL (≈ 1.05 µM) in each case.
For `CC1(C)CC[C@]2(C(=O)O)CC[C@]3(C)C(=CCC4[C@@]5(C)Cc6c(n[nH]c6N)C(C)(C)C5CC[C@]43C)C2C1` (stereo partly drawn) [Compound 2, (4aS,6aS,6bR,13aR)-12-Amino-2,2,6a,6b,9,9,13a-heptamethyl-2,3,4,4a,5,6,6a,6b,7,8,8a,9,11,13,13a,13b,14,15b-octadecahydro-1H-chryseno[1,2-f]indazole-4a-carboxylic acid], the “E. coli” value in the experiment with E. coli (setting [1]) is 1 µg/mL. In addition, the “P. aeruginosa” value in the experiment on P. aeruginosa (setting [1]) turned out to be 0.5 µg/mL.
With `C[C@@H]1c2n[nH]c(N)c2C[C@]2(C)C3CC=C4[C@@H]5CC(C)(C)CC[C@]5(C(=O)O)CC[C@@]4(C)[C@]3(C)CC[C@@H]12` (stereo partly drawn) [Compound 3, (4aS,6aS,6bR,8aS,9S,13aS,15bS)-12-Amino-2,2,6a,6b,9,13a-hexamethyl-2,3,4,4a,5,6,6a,6b,7,8,8a,9,11,13,13a,13b,14,15b-octadecahydro-1H-chryseno[1,2-f]indazole-4a-carboxylic acid], the IC85 in the experiment on E. coli (setting [1]) came to 1 µg/mL (≈ 2.08 µM); with P. aeruginosa (setting [2]), 0.5 µg/mL (≈ 1.04 µM).
As to `CC1=C2[C@@H]3CC(C)(C)CC[C@]3(C(=O)O)CC[C@@]2(C)[C@]2(C)CC[C@H]3C(C)(C)c4n[nH]c(N)c4C[C@]3(C)C2C1` (stereo partly drawn) [Compound 4, (4aS,6aS,6bR,8aR,13aR,15bS)-12-Amino-2,2,6a,6b,9,9,13a,15-octamethyl-2,3,4,4a,5,6,6a,6b,7,8,8a,9,11,13,13a,13b,14,15b-octadecahydro-1H-chryseno[1,2-f]indazole-4a-carboxylic acid], the IC85 with E. coli (setting [1]) was found to be 1 µg/mL (≈ 1.97 µM); with P. aeruginosa (setting [2]) it was 0.25 µg/mL (≈ 0.492 µM).
For `C/C=C/C1=C2[C@@H]3CC(C)(C)CC[C@]3(C(=O)O)CC[C@@]2(C)[C@]2(C)CC[C@H]3C(C)(C)c4n[nH]c(N)c4C[C@]3(C)C2C1` (stereo partly drawn) [Compound 5, (4aS,6aS,6bR,8aR,13aR,15bS)-12-Amino-2,2,6a,6b,9,9,13a-heptamethyl-15-((E)-prop-1-enyl)-2,3,4,4a,5,6,6a,6b,7,8,8a,9,11,13,13a,13b,14,15b-octadecahydro-1H-chryseno[1,2-f]indazole-4a-carboxylic acid], the IC85 in the experiment with E. coli (setting [1]) was found to be 1 µg/mL (≈ 1.87 µM); in the experiment with P. aeruginosa (setting [2]), 0.5 µg/mL (≈ 0.937 µM).
Consider `CC1(C)CC[C@]2(C(=O)O)CC[C@]3(C)C(=C(c4cc[nH]c4)CC4[C@@]5(C)Cc6c(n[nH]c6N)C(C)(C)[C@@H]5CC[C@]43C)[C@@H]2C1` (stereo partly drawn) [Compound 6, (4aS,6aS,6bR,8aR,13aR,15bS)-12-Amino-2,2,6a,6b,9,9,13a-heptamethyl-15-(1H-pyrrol-3-yl)-2,3,4,4a,5,6,6a,6b,7,8,8a,9,11,13,13a,13b,14,15b-octadecahydro-1H-chryseno[1,2-f]indazole-4a-carboxylic acid], for which, in the experiment with E. coli (setting [1]), the IC85 came to 0.25 µg/mL (≈ 0.447 µM).
Turning to `CC1(C)CC[C@]2(C(=O)O)CC[C@]3(C)C(=C(c4ccco4)CC4[C@@]5(C)Cc6c(n[nH]c6N)C(C)(C)C5CC[C@]43C)C2C1` (stereo partly drawn) [Compound 7, (4aS,6aS,6bR,13aR)-12-Amino-15-(furan-2-yl)-2,2,6a,6b,9,9,13a-heptamethyl-2,3,4,4a,5,6,6a,6b,7,8,8a,9,11,13,13a,13b,14,15b-octadecahydro-1H-chryseno[1,2-f]indazole-4a-carboxylic acid], the IC85 in the experiment with E. coli (setting [1]) was found to be 1 µg/mL (≈ 1.79 µM); in the experiment with P. aeruginosa (setting [2]), 0.25 µg/mL (≈ 0.447 µM).
On the same counts, the results for `CC1(C)CC[C@]2(C(=O)O)CC[C@]3(C)C(=C(c4c[nH]c5ccccc45)CC4[C@@]5(C)Cc6c(n[nH]c6N)C(C)(C)[C@@H]5CC[C@]43C)[C@@H]2C1` (stereo partly drawn) [Compound 8, (4aS,6aS,6bR,8aR,13aR,15bS)-12-Amino-15-(1H-indol-3-yl)-2,2,6a,6b,9,9,13a-heptamethyl-2,3,4,4a,5,6,6a,6b,7,8,8a,9,11,13,13a,13b,14,15b-octadecahydro-1H-chryseno[1,2-f]indazole-4a-carboxylic acid] are 1 µg/mL (≈ 1.64 µM) and 0.25 µg/mL (≈ 0.411 µM).
The corresponding values for `CC1(C)CC[C@]2(C(=O)O)CC[C@]3(C)C(=C(c4c[nH]c(CN5CCOCC5)c4)CC4[C@@]5(C)Cc6c(n[nH]c6N)C(C)(C)[C@@H]5CC[C@]43C)[C@@H]2C1` (stereo partly drawn) [Compound 9, (4aS,6aS,6bR,8aR,13aR,15bS)-12-Amino-2,2,6a,6b,9,9,13a-heptamethyl-15-(5-(morpholinomethyl)-1H-pyrrol-3-yl)-2,3,4,4a,5,6,6a,6b,7,8,8a,9,11,13,13a,13b,14,15b-octadecahydro-1H-chryseno[1,2-f]indazole-4a-carboxylic acid] are 1 µg/mL (≈ 1.52 µM) and 0.5 µg/mL (≈ 0.76 µM).
On the same counts, the results for `CC1(C)CC[C@]2(C(=O)O)CC[C@]3(C)C(=C(c4ccc5c(c4)CCN5)CC4[C@@]5(C)Cc6c(n[nH]c6N)C(C)(C)C5CC[C@]43C)C2C1` (stereo partly drawn) [Compound 11, (4aS,6aS,6bR,13aR)-12-Amino-15-(indolin-5-yl)-2,2,6a,6b,9,9,13a-heptamethyl-2,3,4,4a,5,6,6a,6b,7,8,8a,9,11,13,13a,13b,14,15b-octadecahydro-1H-chryseno[1,2-f]indazole-4a-carboxylic acid] are 0.5 µg/mL (≈ 0.818 µM) and 0.5 µg/mL (≈ 0.818 µM).
Consider `C=CC1=C2[C@@H]3CC(C)(C)CC[C@]3(C(=O)O)CC[C@@]2(C)[C@]2(C)CC[C@H]3C(C)(C)c4n[nH]c(N)c4C[C@]3(C)C2C1` (stereo partly drawn) [Compound 13, (4aS,6aS,6bR,8aR,13aR,15bS)-12-Amino-2,2,6a,6b,9,9,13a-heptamethyl-15-vinyl-2,3,4,4a,5,6,6a,6b,7,8,8a,9,11,13,13a,13b,14,15b-octadecahydro-1H-chryseno[1,2-f]indazole-4a-carboxylic acid], for which the IC85 in the experiment on E. coli (Table 3, concentration that reduces the area of the spreading biofilm by >= 85%) was found to be 1 µg/mL (≈ 1.92 µM); with P. aeruginosa (Table 3, concentration that reduces the area of the spreading biofilm by >= 85%, read-out: P. aeruginosa), 0.5 µg/mL (≈ 0.962 µM).
For `C[C@H]1[C@H](C)CC[C@]2(C(=O)O)CC[C@]3(C)C(=CC[C@@H]4[C@@]5(C)C[C@@H](O)[C@H](O)C(C)(C)[C@@H]5CC[C@]43C)[C@H]12` [Corosolic acid, reference compound], the IC85 in the experiment on P. aeruginosa (setting [4]) stood at 4 µg/mL (≈ 8.46 µM).
For the molecule `CC1(C)CC[C@]2(C(=O)O)CC[C@]3(C)C(=CC[C@@H]4[C@@]5(C)C[C@@H](O)[C@H](O)C(C)(C)[C@@H]5CC[C@]43C)[C@@H]2C1` [Maslinic acid, reference compound], the IC85 with P. aeruginosa (read-out: P. aeruginosa (µg/ml)) came to 4 µg/mL (≈ 8.46 µM).
`C[C@H]1[C@H](C)CC[C@]2(C)CC[C@]3(C)C(=CC[C@@H]4[C@@]5(C)CC[C@H](O)C(C)(C)[C@@H]5CC[C@]43C)[C@H]12` [alpha-Amyrin, reference compound]: in the experiment on P. aeruginosa (setting [3]), the “P. aeruginosa” value is over 32 µg/mL.
